Data taken from patent US20060063784A1, “Method of using substituted pyrazolo [1,5-a] pyrimidines” (priority 2004, published 2006).
Read-outs that look alike come from different tables or passages of the source.

Experiments:
[1] = tested on: 80S14 (p21-deficient) cells; experiment: Cytotoxicity assay using isogenic cell lines: IC50 in 80S14 (p21-deficient) cells, SRB; type: cell-based, human; settings: Homo sapiens, 120 h, SRB
Outline: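 80S14 (p21-deficient) cells seeded at 12,000 cells/well overnight, then exposed 5 days at 37 °C to serial dilutions (5 pM–50 μM or 170 pg/ml–10 μg/ml). TCA-fixed, sulforhodamine B-stained, absorbance at 560 nm; IC50 taken from cytotoxicity curves versus untreated controls.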

[2] = tested on: LoVo Colon cell line; experiment: Cytotoxicity assay using LoVo colon cell line, SRB; type: cell-based; settings: Homo sapiens, 96 h, 4 days incubation, SRB, read-out: Inhibition of LoVo
Outline: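 LoVo cells (4000/well, RPMI 1640 with 10% FBS, 37 °C, 7% CO2) seeded overnight, then exposed 4 days to serial dilutions spanning 5 pM-20 μM or 170 pg/ml-10 μg/ml. Survival by SRB staining; IC50 from curves relative to untreated controls.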

[3] = 80S14 (p21-deficient) cells, 5 days, class symbols, read-out: IC50 for 80S14

| melting point | SMILES | IC50 ([1]; 80S14 p21-deficient cells, 5 days incubation, read-out: IC50 for 80SI4) | IC50 ([2]; LoVo colon cells) | IC50 [1, 3] | IC50 ([2]; Cellular activity in LoVo cell) |
| --- | --- | --- | --- | --- | --- |
| 148 to 159 °C | O=C(Nc1cccc(-c2ccnc3c(C(=O)c4cccs4)cnn23)c1)OCCCN1CCS(=O)(=O)CC1 [Example 420, 3-(1,1-Dioxidothiomorpholin-4-yl)propyl 3-[3-(thien-2-ylcarbonyl)pyrazolo[1,5-a]pyrimidin-7-yl]phenylcarbamate] |  |  | < 1 µM | 0.1 to 1 µM |
| 173 to 175 °C | CC(C)CC(=O)Nc1cccc(-c2ccnc3c(-c4cccc(N)c4)cnn23)c1 [Example 464, N-{3-[3-(3-Aminophenyl)pyrazolo[1,5-a]pyrimidin-7-yl]phenyl}-3-methylbutanamide] |  |  | 10 to 50 µM | 1 to 20 µM |
| 129 °C | O=C(c1cccs1)c1cnn2c(-c3cccc(-c4cc[nH]n4)c3)ccnc12 [Example 514, {7-[3-(1H-Pyrazol-3-yl)phenyl]pyrazolo[1,5-a]pyrimidin-3-yl}(thien-2-yl)methanone] |  |  | < 1 µM | 0.1 to 1 µM |
| 62 °C | O=C(c1cccs1)c1cnn2c(-c3cccc(-c4ccn(CCN5CCCCC5)n4)c3)ccnc12 [Example 519, (7-{3-[1-(2-piperidin-1-ylethyl)-1H-pyrazol-3-yl]phenyl}pyrazolo[1,5-a]pyrimidin-3-yl)(thien-2-yl)methanone] |  |  | 1 to 10 µM | 0.1 to 1 µM |

The remaining lines, values behind:

| SMILES | melting point | IC50 ([1]; 80S14 p21-deficient cells, 5 days incubation, read-out: IC50 for 80SI4) | IC50 ([2]; LoVo colon cells) | IC50 [1, 3] | IC50 ([2]; Cellular activity in LoVo cell) |
| --- | --- | --- | --- | --- | --- |
| CCCCNC(=O)Nc1cccc(-c2ccnc3c(C(=O)c4cccs4)cnn23)c1 [Example 8, N-butyl-N′-{3-[3-(thien-2-ylcarbonyl)pyrazolo[1,5-a]pyrimidin-7-yl]phenyl}urea] | 158 to 160 °C | < 1 µM | < 0.1 µM |  |  |
| Cc1cn(-c2cccc(-c3ccnc4c(C(=O)c5cccs5)cnn34)c2)cn1 [Example 247, [7-[3-(4-Methyl-1H-imidazol-1-yl)phenyl]-pyrazolo[1,5-a]pyrimidin-3-yl]-2-thienyl-methanone] | 232 to 234 °C |  |  | 1 to 10 µM | 0.1 to 1 µM |
| O=C(Nc1cccc(-c2ccnc3c(C(=O)c4cccs4)cnn23)c1)c1ccncc1 [Example 291, N-{3-[3-(2-Thienylcarbonyl)pyrazolo[1,5-a]pyrimidin-7-yl]phenyl}isonicotinamide] | 212 to 215 °C |  |  | < 1 µM | < 0.1 µM |
| CC(C)CCNc1cccc(-c2ccnc3c(C(=O)c4cccs4)cnn23)c1 [Example 350, {7-[3-(Isopentylamino)phenyl]pyrazolo[1,5-a]pyrimidin-3-yl}(thien-2-yl)methanone] | 75 to 77 °C |  |  | < 1 µM | < 0.1 µM |
| O=C(Nc1cccc(-c2ccnc3c(C(=O)c4cccs4)cnn23)c1)c1ccccc1F [Example 358, 2-Fluoro-N-{3-[3-(thien-2-ylcarbonyl)pyrazolo[1,5-a]pyrimidin-7-yl]phenyl}benzamide] | 190 to 191 °C |  |  | < 1 µM | < 0.1 µM |
| O=C(c1cccs1)c1cnn2c(Cl)ccnc12 [Example 390, (7-Chloropyrazolo[1,5-a]pyrimidin-3-yl)(thien-2-yl)methanone] | 148 to 150 °C |  |  | 1 to 10 µM | 1 to 20 µM |
| COc1ccccc1/C=C/CNc1cccc(-c2ccnc3c(C(=O)c4cccs4)cnn23)c1 [Example 395, [7-(3-{[(2E)-3-(2-Methoxyphenyl)prop-2-enyl]amino}phenyl)pyrazolo[1,5-a]pyrimidin-3-yl](thien-2-yl)methanone] | 128 to 131 °C |  |  | 10 to 50 µM | 1 to 20 µM |
| CC(C)NC(=N)Nc1cccc(-c2ccnc3c(C(=O)c4cccs4)cnn23)c1 [Example 411, N-Isopropyl-N′-{3-[3-(thien-2-ylcarbonyl)pyrazolo[1,5-a]pyrimidin-7-yl]phenyl}guanidine] | > 200 °C |  |  | 10 to 50 µM |  |
| CC(C)NC(=NC#N)Nc1cccc(-c2ccnc3c(C(=O)c4cccs4)cnn23)c1 [Example 414, N″-Cyano-N-isopropyl-N′-{3-[3-(thien-2-ylcarbonyl)pyrazolo[1,5-a]pyrimidin-7-yl]phenyl}guanidine] | 240 to 241 °C |  |  | < 1 µM |  |
